In patent US9060997B2, “Antifolate compounds for the treatment of melanoma” (UNIVERSIDAD DE MURCIA, priority 2007, dated 2015):

Legend:
H1264 cells = experiment: MTT cell proliferation assay, H1264; assay type: cell-based; details: Homo sapiens, 144 h; H1264, 6 days of treatment
Procedure: Four human cancer cells lines (SkMel-28, MCF7, H1264 and Caco-2) were obtained from the American Type Tissue Culture Collection (ATCC) and were maintained in appropriate culture mediums supplemented with 10% fetal calf serum (FCS) and antibiotics, under standard tissue culture conditions (e.g. modified Eagle's medium (MEM) containing 1 mM sodium pyruvate and 10% fetal bovine serum (FES) under 5% CO2/95% air atmosphere.). Cell injury was evaluated by a colorimetric assay for mitochondrial function using the 3-(4,5-dimethylthiazolyl-2)-2,5-diphenyltetrazolium bromide (MTT) cell proliferation assay. For this assay cells were plated in a 96-well plate at a density of 1000 cells/well and grown until they reached 50-60% confluence. Human epidermal melanocytes (HeM) were supplied by Gentaur and were cultured in HAM-F10 medium supplemented with 10% FCS, antibiotics and the human melanocyte growth supplement (Gentaur).

rHDHFR = molecular target: T1, rHDHFR (Homo sapiens, UniProt P00374); experiment: rHDHFR binding: fluorescence titration and stopped-flow fluorescence
T1 construct: purchased Sigma
T1 sequence (P00374 1-187): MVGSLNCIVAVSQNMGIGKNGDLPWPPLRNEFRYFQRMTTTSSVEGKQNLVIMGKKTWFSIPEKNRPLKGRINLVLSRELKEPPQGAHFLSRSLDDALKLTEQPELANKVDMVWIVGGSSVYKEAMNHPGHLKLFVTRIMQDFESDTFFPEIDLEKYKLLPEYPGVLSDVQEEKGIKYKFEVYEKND
Procedure: The experiments were carried out in a buffer containing 2-(N-morpholino)ethanesulfonic acid (Mes, 0.025 M), sodium acetate (0.025 M), tris-(hydroxymethyl)aminomethane (Tris 0.05 M), and NaCl (0.1 M) at pH 7.4 and 25° C. in the presence of QM and rHDHFR (0.5 μM).
Stopped-flow fluorescence experiments were carried out at pH 7.4 and 25° C. using an enzyme concentration of 0.25 μM. The reaction of rHDHFR with inhibitors was observed under pseudo-first order conditions by fluorescence at 340 nm (excitation at 290 nm). The data points s are the means of at least 3 (normally 5) repeat observations±SD. […] Aliquots (20 μl) of the incubation mixture was then diluted 50-fold into a reaction mixture containing the buffer, NADPH (100 μM), and DHF (10 μM) to give a final enzyme concentration of 1.5 nM.
The activity of rHDHFR was determined at 25° C. by following the decrease in the absorbance of NADPH and DHF at 340 nm (ε=11800 M-1 cm−1) (Stone and Morrison, 1986). Progress curves were obtained under ordered conditions ([NADPH]>>[DHF]). rHDHFR inhibition constants were calculated as described by Navarro-Perán et al., 2005b. The dissociation constant for the binding of inhibitors to free rHDHFR was determined at 25° C. by fluorescence titration in an automatic-scanning Perkin-Elmer LS50B spectrofluorimeter. Fluorescence emission spectra were recorded when rHDHFR fluorescence was excited at 290 nm. Stopped-flow fluorescence experiments were carried out using an Applied Photophysics Ltd. Pi-Star 180 spectrometer with a stopped-flow unit at 25° C.

Caspase-3 mRNA = Caspase-3 mRNA expression (real-time PCR); assay type: cell-based, human; details: SkMel-28, 50 μM, 7 days
Procedure: Histograms compare the estimated relative levels of the mRNA with respect to that of β-actin. Values represent the number of copies of mRNA per each 1×10^6 copies of β-actin.
cDNA samples (1 μL) were used for real-time PCR in a total volume of 20 μL using SYBR Green Reagent (Applied Biosystems) and specific primers on a 7500 Real Time PCR System of Applied Biosystems. The PCR amplification cycles included denaturation 95° C., 15 min; to activate HotStar Taq DNA polymerase and to minimize primer-dimer contribution), and amplification [over 40-50 cycles including denaturation (94° C.; 30 s), annealing (55° C.; 30 s), and extension (72° C.; 1 min)]. All PCR reactions were performed in triplicate and from at least two independent experiments. Non-RT control and negative control samples (without template) were processed in the same manner. The specificity of the amplification was verified by melting curve analysis for all samples, and occasionally by agarosa gel electrophoresis. Amplification of target gene sequences were compared against serial dilutions of know quantities of their purified cDNA fragments, and normalized to the abundance of the house-keeping gene β-actin.

FRα mRNA = experiment: FRα expression in SkMel-28 (real-time PCR, RT-PCR); assay type: cell-based, human; details: SkMel-28, 50 μM
Procedure: PolyA+ mRNA from human adult skin was purchased from Invitrogen. SkMel-28 and HEM polyA+ mRNA was extracted from 5×10^6 cells using the Illustra Quick Prep Micro mRNA purification kit (GE Healthcare). mRNA (200 ng) was used to synthesize cDNA using SuperScript First-Strand Synthesis System (Invitrogen). PCR amplification of 2 μL of the cDNA strand generated was carried out in a total volume of 50 μL using an Eppendorf Mastercycler Thermal Cycler. Samples were amplified by 40 cycles at 95° C. (1 min), 62° C. (1 min) and 72° C. (1 min). The amplified PCR products were subjected to electrophoresis in 3% agarose gel and stained with ethidium bromide.
Primers were designer using Primer Express version 2.0 software (Applied Biosystems, Foster City, Calif.) and synthesized by Invitrogen. […] Amplification of target gene sequences were compared against serial dilutions of know quantities of their purified cDNA fragments, and normalized to the abundance of the house-keeping gene β-actin.

Compound `COc1cc(C(=O)O[C@@H]2Cc3c(O)cc(O)cc3O[C@@H]2c2ccc(O)c(O)c2)cc(OC)c1OC` [TMECG, 3-O-(3,4,5-trimethoxybenzoyl)-(−)-epicatechin] has an IC50 (H1264 cells) of 18 µM, a koff (rHDHFR; calculated from KI=koff/kon, read-out: koff) of 0.29 s⁻¹ and a Ki (rHDHFR; dissociation constant, free rHDHFR, fluorescence titration, pH 7.4, 25° C.) of 2.1 µM. The kon (rHDHFR; stopped-flow fluorescence, pH 7.4, 25° C., read-out: kon) was 140000 M⁻¹ s⁻¹, the “Caspase-3 mRNA, higher than in HeM or untreated SkMel-28” value (Caspase-3 mRNA) was “around 30 times” and the “mature FRα mRNA (RT-PCR)” value (FRα mRNA; 3 days) was “partially restored the levels of mature FRα mRNA”. The “FRα expression (exon 5 region, real-time PCR)” value (FRα mRNA; 5 days of treatment) was “no apparent effect on its expression”.
